In patent US20260274832A1, “COMPOUNDS AND THEIR USE IN TREATING CANCER” (ASTRAZENECA AB, priority 2023, published 2026):

Legend:
[1] = biological target: T1, AR (L702H) in LNCaP cells (Homo sapiens, UniProt P10275, L702H/T878A); experiment: LNCaP Androgen Receptor L702H Imaging Assay (LNCaP cells engineered by CRISPR/Cas9); format: cell-based; conditions: LNCaP cells with AR L702H mutation, 24 h incubation; for DC50: concentration giving 50% of maximum degradation of AR (L702H) per curve fit; for Dmax: LNCaP, maximum degradation observed, normalized as % of positive control
T1 construct: engineered to introduce the mutation L702H into the AR gene using CRISPR/Cas9; endogenous in cells; host or cells: LNCaP cells edited by CRISPR/Cas9 at the AR gene
T1 sequence (P10275 whole entry L702H/T878A): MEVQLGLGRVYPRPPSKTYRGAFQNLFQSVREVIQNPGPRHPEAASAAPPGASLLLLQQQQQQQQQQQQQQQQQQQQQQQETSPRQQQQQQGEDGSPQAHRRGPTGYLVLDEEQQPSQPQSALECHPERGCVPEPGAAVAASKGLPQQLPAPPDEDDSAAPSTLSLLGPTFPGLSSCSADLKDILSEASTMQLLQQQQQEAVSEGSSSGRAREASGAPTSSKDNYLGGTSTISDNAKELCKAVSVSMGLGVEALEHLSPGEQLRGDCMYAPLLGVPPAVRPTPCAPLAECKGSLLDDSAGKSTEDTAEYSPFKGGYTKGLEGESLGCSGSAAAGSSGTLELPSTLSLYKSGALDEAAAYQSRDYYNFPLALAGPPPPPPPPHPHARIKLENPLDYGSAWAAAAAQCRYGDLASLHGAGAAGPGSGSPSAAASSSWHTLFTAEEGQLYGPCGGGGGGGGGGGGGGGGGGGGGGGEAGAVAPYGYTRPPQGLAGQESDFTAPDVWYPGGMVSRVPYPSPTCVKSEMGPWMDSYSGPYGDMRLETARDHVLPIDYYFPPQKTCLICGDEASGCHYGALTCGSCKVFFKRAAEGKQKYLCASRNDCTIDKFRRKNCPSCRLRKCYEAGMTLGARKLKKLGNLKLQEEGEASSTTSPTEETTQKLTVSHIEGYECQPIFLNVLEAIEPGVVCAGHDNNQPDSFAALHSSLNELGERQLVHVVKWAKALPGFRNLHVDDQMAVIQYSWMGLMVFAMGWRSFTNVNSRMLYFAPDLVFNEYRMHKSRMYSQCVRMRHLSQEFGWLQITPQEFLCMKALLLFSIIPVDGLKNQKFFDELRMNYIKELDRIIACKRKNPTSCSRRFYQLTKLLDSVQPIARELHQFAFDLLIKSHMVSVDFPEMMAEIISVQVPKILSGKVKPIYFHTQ
T1 sequence (Q96SW2 whole entry partner): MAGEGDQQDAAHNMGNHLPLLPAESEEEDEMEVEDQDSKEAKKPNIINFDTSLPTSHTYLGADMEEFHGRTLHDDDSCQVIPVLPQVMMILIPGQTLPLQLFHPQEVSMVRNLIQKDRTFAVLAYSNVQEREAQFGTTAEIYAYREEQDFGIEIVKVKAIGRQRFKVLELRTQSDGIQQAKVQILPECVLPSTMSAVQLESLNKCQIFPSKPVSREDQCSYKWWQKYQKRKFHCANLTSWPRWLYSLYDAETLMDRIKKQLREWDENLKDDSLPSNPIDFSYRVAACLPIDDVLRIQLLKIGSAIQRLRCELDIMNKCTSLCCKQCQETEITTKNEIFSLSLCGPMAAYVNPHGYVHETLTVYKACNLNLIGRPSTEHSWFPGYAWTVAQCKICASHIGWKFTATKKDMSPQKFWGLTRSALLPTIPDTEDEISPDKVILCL
In short: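 CRISPR-engineered LNCaP cells carrying AR L702H were treated 24 h at 37 °C with a 12-point compound dose response (0.3% DMSO), then fixed and immunostained for AR with DRAQ5 nuclear counterstain. Nuclear AR was quantified by imaging, normalized to positive control; DC50 and Dmax came from Hill or bell-shaped fits.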

[2] = biological target: T2, AR (AR-full length) in LNCaP cells (Homo sapiens, UniProt P10275, T878A); experiment: LNCaP Androgen Receptor Imaging Assay (immunofluorescence of endogenous nuclear AR); format: cell-based; conditions: 24 h incubation; for DC50: concentration giving 50% of maximum degradation of AR per curve fit, single experiment or average of two or more; for Dmax: LNCaP, maximum degradation observed, normalized as % of positive control (prior art AR PROTAC at 3 μM)
T2 construct: the prostate cancer cell line LNCaP (expressing AR-full length); endogenous in cells; host or cells: LNCaP
T2 sequence (P10275 whole entry T878A): as the sequence (P10275 whole entry L702H/T878A) above, with H702L counted along it
T2 sequence (Q96SW2 whole entry partner): as the sequence (Q96SW2 whole entry partner) above
In short: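 LNCaP cells (12,000/well) received a 12-point compound dose series (0.3% DMSO) for 24 h at 37° C., then were PFA-fixed and stained for AR (AR441) and nuclei (DRAQ5). Nuclear AR was quantified by imaging, normalized to a 3 μM AR PROTAC control; DC50 and Dmax came from Hill/bell curve fits.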

Row | SMILES | DC50 [1] [nM] | Dmax [1] [%] | DC50 [2] [nM] | Dmax [2] [%]
1 | N#Cc1c[nH]c2c(N3CCC(c4ccc(OCCCCN5CCN(c6ccc7c(c6)CN(C6CCC(=O)NC6=O)C7=O)CC5)cc4)CC3)cccc12 (stereo not drawn) [Example 57] | 31 | 79 | 18 | 87
2 | N#Cc1c[nH]c2c(N3CCC(c4ccc(OCCCCN5CCC(n6ccc7c(N8CCC(=O)NC8=O)cccc76)CC5)cc4)CC3)cccc12 [Example 58, 7-{4-[4-(4-{4-[4-(2,4-Dioxo-1,3-diazinan-1-yl)-1H-indol-1-yl]piperidin-1-yl}butoxy)phenyl]piperidin-1-yl}-1H-indole-3-carbonitrile] | 114 | 78 | 13 | 96
3 | N#Cc1c[nH]c2c(N3CCC(c4ccc(N5CCC(CN6CCC(n7ccc8c(N9CCC(=O)NC9=O)cccc87)CC6)CC5)cc4)CC3)cccc12 [Example 59, 7-(4-{4-[4-({4-[4-(2,4-Dioxo-1,3-diazinan-1-yl)-1H-indol-1-yl]piperidin-1-yl}methyl)piperidin-1-yl]phenyl}piperidin-1-yl)-1H-indole-3-carbonitrile] | 47 | 95 | 51 | 88
4 | COc1cc(N2CCN(CC3CCN(c4ccc(C5CCN(c6ccc(Cl)c7c(C#N)c[nH]c67)CC5)nc4)CC3)CC2)cc2c1C(=O)N(C1CCC(=O)NC1=O)C2 (stereo not drawn) [Example 60, 4-Chloro-7-(4-{5-[4-({4-[2-(2,6-dioxopiperidin-3-yl)-7-methoxy-1-oxo-2,3-dihydro-1H-isoindol-5-yl]piperazin-1-yl}methyl)piperidin-1-yl]pyridin-2-yl}piperidin-1-yl)-1H-indole-3-carbonitrile] | 23 | 57 | 5 | 93
5 | COc1nc(N2CCN(CC3CCN(c4ccc(C5CCN(c6ccc(Cl)c7c(C#N)c[nH]c67)CC5)nc4)CC3)CC2)cc2c1C(=O)N(C1CCC(=O)NC1=O)C2 (stereo not drawn) [Example 61, 4-Chloro-7-(4-{5-[4-({4-[2-(2,6-dioxopiperidin-3-yl)-4-methoxy-3-oxo-2,3-dihydro-1H-pyrrolo[3,4-c]pyridin-6-yl]piperazin-1-yl}methyl)piperidin-1-yl]pyridin-2-yl}piperidin-1-yl)-1H-indole-3-carbonitrile] | 25 | 65 | 6 | 94
6 | N#Cc1c[nH]c2c(N3CCC(c4ccc(N5CCC(CN6CCC(n7ccc8c(N9CCC(=O)NC9=O)cccc87)CC6)CC5)cn4)CC3)ccc(Cl)c12 [Example 62, 4-Chloro-7-(4-{5-[4-({4-[4-(2,4-dioxo-1,3-diazinan-1-yl)-1H-indol-1-yl]piperidin-1-yl}methyl)piperidin-1-yl]pyridin-2-yl}piperidin-1-yl)-1H-indole-3-carbonitrile] | 80 | 71 | 7 | 99
7 | N#Cc1c[nH]c2c(N3CCC(c4ccc(N5CCC(CN6CCC(n7ccc8c(N9CCC(=O)NC9=O)cccc87)CC6)CC5)nn4)CC3)ccc(Cl)c12 [Example 63, 4-Chloro-7-(4-{6-[4-({4-[4-(2,4-dioxo-1,3-diazinan-1-yl)-1H-indol-1-yl]piperidin-1-yl}methyl)piperidin-1-yl]pyridazin-3-yl}piperidin-1-yl)-1H-indole-3-carbonitrile] | 16 | 63 | 6 | 94
8 | N#Cc1c[nH]c2c(N3CCC(c4ccc(N5CCC(CN6CCN(c7ccc8c(c7)CN(C7CCC(=O)NC7=O)C8=O)CC6)CC5)nn4)CC3)ccc(Cl)c12 (stereo not drawn) [Example 64, 4-Chloro-7-(4-{6-[4-({4-[2-(2,6-dioxopiperidin-3-yl)-1-oxo-2,3-dihydro-1H-isoindol-5-yl]piperazin-1-yl}methyl)piperidin-1-yl]pyridazin-3-yl}piperidin-1-yl)-1H-indole-3-carbonitrile] | 8 | 56 | 5 | 83
9 | N#Cc1c[nH]c2c(N3CCC(c4cnc(N5CCC(CN6CCC(n7ccc8c(N9CCC(=O)NC9=O)cccc87)CC6)CC5)cn4)CC3)ccc(Cl)c12 [Example 67] | 14 | 87 | 4 | 98
10 | N#Cc1c[nH]c2c(N3CCC(c4cnc(N5CCC(CN6CCN(c7ccc8c(c7)CN(C7CCC(=O)NC7=O)C8=O)CC6)CC5)cn4)CC3)ccc(Cl)c12 (stereo not drawn) [Example 68, 4-Chloro-7-(4-{5-[4-({4-[2-(2,6-dioxopiperidin-3-yl)-1-oxo-2,3-dihydro-1H-isoindol-5-yl]piperazin-1-yl}methyl)piperidin-1-yl]pyrazin-2-yl}piperidin-1-yl)-1H-indole-3-carbonitrile] | 21 | 84 | 6 | 97
11 | Cc1ccc(N2CCC(c3ccc(N4CCC(CN5CCN(Cc6cccc7c6n(C)c(=O)n7C6CCC(=O)NC6=O)CC5)CC4)cc3)CC2)c2[nH]cc(C#N)c12 (stereo not drawn) [Example 69, 7-[4-(4-{4-[(4-{[1-(2,6-Dioxopiperidin-3-yl)-3-methyl-2-oxo-2,3-dihydro-1H-benzimidazol-4-yl]methyl}piperazin-1-yl)methyl]piperidin-1-yl}phenyl)piperidin-1-yl]-4-methyl-1H-indole-3-carbonitrile] | 5 | 94 | 9 | 92
12 | Cn1c(=O)n(C2CCC(=O)NC2=O)c2cccc(CN3CCN(CC4CCN(c5ccc(C6CCN(c7ccc(Cl)c8c(C#N)c[nH]c78)CC6)cc5)CC4)CC3)c21 (stereo not drawn) [Example 70, 4-Chloro-7-[4-(4-{4-[(4-{[1-(2,6-dioxopiperidin-3-yl)-3-methyl-2-oxo-2,3-dihydro-1H-benzimidazol-4-yl]methyl}piperazin-1-yl)methyl]piperidin-1-yl}phenyl)piperidin-1-yl]-1H-indole-3-carbonitrile] | 9 | 101 | 9 | 97
13 | Cn1c(=O)n(C2CCC(=O)NC2=O)c2cccc(CN3CCN(CC4CCN(c5ccc(C6CCN(c7ccc(F)c8c(C#N)c[nH]c78)CC6)cc5)CC4)CC3)c21 (stereo not drawn) [Example 71, 7-[4-(4-{4-[(4-{[1-(2,6-Dioxopiperidin-3-yl)-3-methyl-2-oxo-2,3-dihydro-1H-benzimidazol-4-yl]methyl}piperazin-1-yl)methyl]piperidin-1-yl}phenyl)piperidin-1-yl]-4-fluoro-1H-indole-3-carbonitrile] | 7 | 94 | 7 | 84
14 | Cn1c(=O)n(C2CCC(=O)NC2=O)c2cccc(N3CCN(CC4CCN(c5ccc(C6CCN(c7ccc(Cl)c8c(C#N)c[nH]c78)CC6)cc5)CC4)CC3)c21 (stereo not drawn) [Example 72, 4-Chloro-7-(4-{4-[4-({4-[1-(2,6-dioxopiperidin-3-yl)-3-methyl-2-oxo-2,3-dihydro-1H-benzimidazol-4-yl]piperazin-1-yl}methyl)piperidin-1-yl]phenyl}piperidin-1-yl)-1H-indole-3-carbonitrile] | 21 | 92 | 14 | 91
15 | Cn1c(=O)n(C2CCC(=O)NC2=O)c2cccc(CN3CCN(CC4CCN(c5ccc([C@@H]6CCCN(c7ccc(Cl)c8c(C#N)c[nH]c78)C6)cc5)CC4)CC3)c21 (stereo partly drawn) [Example 73, 4-Chloro-7-[(3S)-3-(4-{4-[(4-{[1-(2,6-dioxopiperidin-3-yl)-3-methyl-2-oxo-2,3-dihydro-1H-benzimidazol-4-yl]methyl}piperazin-1-yl)methyl]piperidin-1-yl}phenyl)piperidin-1-yl]-1H-indole-3-carbonitrile] | 13 | 90 | 7 | 93
16 | Cn1c(=O)n(C2CCC(=O)NC2=O)c2cccc(CN3CCN(CC4CCN(c5ccc([C@@H]6CCCN(c7ccc(F)c8c(C#N)c[nH]c78)C6)cc5)CC4)CC3)c21 (stereo partly drawn) [Example 74] | 21 | 70 | 8 | 93
17 | N#Cc1c[nH]c2c(N3CCC(c4ccc(N5CCC(CN6Cc7cc8c(cc7C6)C(=O)N(C6CCC(=O)NC6=O)C8=O)CC5)cc4)CC3)ccc(Cl)c12 (stereo not drawn) [Example 75, 4-Chloro-7-{4-[4-(4-{[6-(2,6-dioxopiperidin-3-yl)-5,7-dioxo-3,5,6,7-tetrahydropyrrolo[3,4-f]isoindol-2(1H)-yl]methyl}piperidin-1-yl)phenyl]piperidin-1-yl}-1H-indole-3-carbonitrile] | 68 | 83 | 62 | 68
18 | N#Cc1n[nH]c2c(N3CCC[C@@H](c4ccc(N5CCC(CN6Cc7cc8c(cc7C6)C(=O)N(C6CCC(=O)NC6=O)C8=O)CC5)cc4)C3)ccc(Cl)c12 (stereo partly drawn) [Example 76, 4-Chloro-7-{(3S)-3-[4-(4-{[6-(2,6-dioxopiperidin-3-yl)-5,7-dioxo-3,5,6,7-tetrahydropyrrolo[3,4-f]isoindol-2(1H)-yl]methyl}piperidin-1-yl)phenyl]piperidin-1-yl}-1H-indazole-3-carbonitrile] | 38 | 104 | 18 | 92
